Data reported in paper PMC9161374 (Science Translational Medicine, 2022).
“And” between values parts separate entries of the source, which are not always exact repeats. Identical values can stand only once. Like-named read-outs stand apart in the source and are kept apart here.

How the values were obtained:
[1] = test system: SARS-CoV-2 (Beta, B.1.351); assay: microbe, parasite or virus in culture; type: cell-based; settings: for % Inhibition: beta
[2] = test system: SARS-CoV-2 (Delta, B.1.617.2); assay: microbe, parasite or virus in culture; type: cell-based; settings: for % Inhibition: delta
[3] = CCK-8 cell viability assay; type: cell-based, African green monkey; settings: African green monkey; Vero E6 cells, 48 h, CCK8
How it was run: (§1)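 Vero E6 cells, 20,000/well, exposed to compound at 0–200 μM (0, 0.01, 0.1, 1, 5, 10, 50, 75, 100, 200 μM) for 48 h; viability read by CCK-8 and expressed as percentage versus drug concentration, mean ± SD.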

Vero E6 cells = assay: CCK-8 cell viability assay; type: cell-based, African green monkey; settings: individual replicate values, Fig.S4
How it was run: as §1

[4] = test system: SARS-CoV-2 replicon system (pBAC-SARS-CoV-2-Replicon-Luc); assay: microbe, parasite or virus in culture; type: cell-based
SARS-CoV-2 (B.1) = assay: Anti-SARS-CoV-2 activity in Vero E6 cells (viral yield by qRT-PCR); type: cell-based
[5] = Permeability and efflux ratio in Caco-2 cells; type: in vitro ADME; settings: human
Description: ATV019, and ATV020 in Caco-2 cells.
Compound Caco-2 AB/BA (Papp (10-6 cm/s)) a Efflux ratio

[6] = test system: SARS-CoV-2 (B.1) in Huh7 cells; assay: Anti-SARS-CoV-2 activity in Huh7 cells (viral yield by qRT-PCR); type: cell-based; settings: B.1, MOI 0.05, 48 h
[7] = test system: SARS-CoV-2 (Omicron, B.1.1.529); settings: Omicon, Vero E6, replicates
[8] = test system: SARS-CoV-2 (Omicron, B.1.1.529); assay: microbe, parasite or virus in culture
[9] = Severe acute respiratory syndrome coronavirus 2, Vero C1008, read-out: EC90 (Confidence 95%)

Compound: CC(C)C(=O)OC[C@H]1O[C@@](C#N)(c2ccc3c(N)ncnn23)[C@H](O)[C@@H]1O [ATV006]
- EC50 ([1]; Severe acute respiratory syndrome coronavirus 2, Vero C1008, 48 h, read-out: EC50 in Vero E6 cells, SARS-CoV-2 (Beta, B.1.351)): 1130 nM
- inhibition at 0.01 µM ([1]; Severe acute respiratory syndrome coronavirus 2, Vero C1008, beta, 0.01 uM, Vero E6, replicates): 0%
- inhibition at 0.1 µM ([1]; Severe acute respiratory syndrome coronavirus 2, Vero C1008, beta, 0.1 uM, Vero E6, replicates): 0%
- inhibition at 0.25 µM ([1]; Severe acute respiratory syndrome coronavirus 2, Vero C1008, beta, 0.25 uM, Vero E6, replicates): 0%
- inhibition at 0.5 µM ([1]; Severe acute respiratory syndrome coronavirus 2, Vero C1008, beta, 0.5 uM, Vero E6, replicates): 0%
- inhibition at 1 µM ([1]; Severe acute respiratory syndrome coronavirus 2, Vero C1008, beta, 1 uM, Vero E6, replicates): 32.1%
- inhibition at 2 µM ([1]; Severe acute respiratory syndrome coronavirus 2, Vero C1008, beta, 2 uM, Vero E6, replicates): 99.6%
- inhibition at 5 µM ([1]; Severe acute respiratory syndrome coronavirus 2, Vero C1008, beta, 5 uM, Vero E6, replicates): 99.7%
- inhibition at 10 µM ([1]; Severe acute respiratory syndrome coronavirus 2, Vero C1008, beta, 10 uM, Vero E6, replicates): 99.9%
- inhibition at 50 µM ([1]; Severe acute respiratory syndrome coronavirus 2, Vero C1008, beta, 50 uM, Vero E6, replicates): 99.9%
- EC90 ([1]; Severe acute respiratory syndrome coronavirus 2, Vero C1008, read-out: EC90 (Confidence 95%), Vero-E6, Beta B.1.351): 1360 nM
- % Inhibition ([1]; 1 uM, Vero E6, replicates): 16.537%
- % Inhibition ([1]; 2 uM, Vero E6, replicates): 99.486%
- % Inhibition ([1]; 5 uM, Vero E6, replicates): 99.5312%
- % Inhibition ([1]; 10 uM, Vero E6, replicates): 99.9431%
- % Inhibition ([1]; 50 uM, Vero E6, replicates): 99.9484%
- EC50 ([2]; Severe acute respiratory syndrome coronavirus 2, Vero C1008, 48 h, read-out: EC50 in Vero E6 cells, SARS-CoV-2 (Delta, B.1.617.2)): 349 nM
- inhibition at 0.01 µM ([2]; Severe acute respiratory syndrome coronavirus 2, Vero C1008, delta, 0.01 uM, Vero E6, replicates): 0%
- inhibition at 0.1 µM ([2]; Severe acute respiratory syndrome coronavirus 2, Vero C1008, delta, 0.1 uM, Vero E6, replicates): 0%
- inhibition at 0.25 µM ([2]; Severe acute respiratory syndrome coronavirus 2, Vero C1008, delta, 0.25 uM, Vero E6, replicates): 13.4%
- inhibition at 0.5 µM ([2]; Severe acute respiratory syndrome coronavirus 2, Vero C1008, delta, 0.5 uM, Vero E6, replicates): 86.8%
- inhibition at 1 µM ([2]; Severe acute respiratory syndrome coronavirus 2, Vero C1008, delta, 1 uM, Vero E6, replicates): 94.7%
- inhibition at 2 µM ([2]; Severe acute respiratory syndrome coronavirus 2, Vero C1008, delta, 2 uM, Vero E6, replicates): 96.7%
- inhibition at 5 µM ([2]; Severe acute respiratory syndrome coronavirus 2, Vero C1008, delta, 5 uM, Vero E6, replicates): 95.5%
- inhibition at 10 µM ([2]; Severe acute respiratory syndrome coronavirus 2, Vero C1008, delta, 10 uM, Vero E6, replicates): 99.9%
- inhibition at 50 µM ([2]; Severe acute respiratory syndrome coronavirus 2, Vero C1008, delta, 50 uM, Vero E6, replicates): 99.9%
- EC90 ([2]; Severe acute respiratory syndrome coronavirus 2, Vero C1008, read-out: EC90 (Confidence 95%), Vero-E6, Delta B.1.617.2): 506 nM
- % Inhibition ([2]; 0.25 uM, Vero E6, replicates): 17.4307%
- % Inhibition ([2]; 0.5 uM, Vero E6, replicates): 86.6826%
- % Inhibition ([2]; 1 uM, Vero E6, replicates): 92.7523%
- % Inhibition ([2]; 2 uM, Vero E6, replicates): 95.2669%
- % Inhibition ([2]; 5 uM, Vero E6, replicates): 93.5585%
- % Inhibition ([2]; 10 uM, Vero E6, replicates): 99.4329%
- % Inhibition ([2]; 50 uM, Vero E6, replicates): 99.3835%
- CC50 at 48 h [3]: 128000 nM
- cell viability (% of control) (Vero E6 cells; 0.01 μM compound, 0.01 µM): 93.4165 % of control and 118.52 % of control and 111.314 % of control
- cell viability (% of control) (Vero E6 cells; 0.1 μM compound, 0.1 µM): 114.92 % of control and 109.106 % of control and 122.304 % of control
- cell viability (% of control) (Vero E6 cells; 1 μM compound, 1 µM): 103.338 % of control and 92.7243 % of control and 89.4018 % of control
- cell viability (% of control) (Vero E6 cells; 2 μM compound, 2 µM): 94.6163 % of control and 92.5859 % of control and 102 % of control
- cell viability (% of control) (Vero E6 cells; 5 μM compound, 5 µM): 130.333 % of control and 131.994 % of control and 107.906 % of control
- cell viability (% of control) (Vero E6 cells; 10 μM compound, 10 µM): 124.057 % of control and 118.52 % of control and 118.981 % of control
- cell viability (% of control) (Vero E6 cells; 50 μM compound, 50 µM): 93.4165 % of control and 89.4165 % of control
- cell viability (% of control) (Vero E6 cells; 75 μM compound, 75 µM): 60.8815 % of control and 65.7193 % of control and 58.2133 % of control
- cell viability (% of control) (Vero E6 cells; 100 μM compound, 100 µM): 50.7027 % of control and 56.7073 % of control and 50.0144 % of control
- cell viability (% of control) (Vero E6 cells; 200 μM compound, 200 µM): 35.664 % of control and 47.0944 % of control and 42.1024 % of control
- activity in the replicon system in comparison with parent GS-441524 [4]: improved the inhibitory activities
- EC50 ([4]; Severe acute respiratory syndrome coronavirus 2, HEK-293T, 60 h, read-out: EC50 (Confidence 95%), replicon): 521 nM
- EC90 ([4]; Severe acute respiratory syndrome coronavirus 2, HEK-293T, 60 h, read-out: EC90 (Confidence 95%), replicon): 3220 nM
- % Inhibition (SARS-CoV-2 (B.1); 1 μM, replicates, sheet Fig.S3): 3.722%
- % Inhibition (SARS-CoV-2 (B.1); 2 μM, replicates, sheet Fig.S3): 87.0049%
- % Inhibition (SARS-CoV-2 (B.1); 5 μM, replicates, sheet Fig.S3): 91.6411%
- % Inhibition (SARS-CoV-2 (B.1); 10 μM, replicates, sheet Fig.S3): 90.9393%
- % Inhibition (SARS-CoV-2 (B.1); B.1, 1 uM, Vero E6, replicates, 1 µM): 3.249%
- % Inhibition (SARS-CoV-2 (B.1); B.1, 2 uM, Vero E6, replicates, 2 µM): 99.386%
- % Inhibition (SARS-CoV-2 (B.1); B.1, 5 uM, Vero E6, replicates, 5 µM): 99.8149%
- % Inhibition (SARS-CoV-2 (B.1); B.1, 10 uM, Vero E6, replicates, 10 µM): 99.9851%
- % Inhibition (SARS-CoV-2 (B.1); B.1, 50 uM, Vero E6, replicates, 50 µM): 99.991%
- inhibition at 0.1 µM (SARS-CoV-2 (B.1); Severe acute respiratory syndrome coronavirus 2, Vero C1008, 0.1 μM, replicates, sheet Fig.S3): 0%
- inhibition at 0.5 µM (SARS-CoV-2 (B.1); Severe acute respiratory syndrome coronavirus 2, Vero C1008, 0.5 μM, replicates, sheet Fig.S3): 0%
- inhibition at 2 µM (SARS-CoV-2 (B.1); Severe acute respiratory syndrome coronavirus 2, Vero C1008, 2 μM, replicates, sheet Fig.S3): 87.7%
- inhibition at 5 µM (SARS-CoV-2 (B.1); Severe acute respiratory syndrome coronavirus 2, Vero C1008, 5 μM, replicates, sheet Fig.S3): 93.3%
- inhibition at 10 µM (SARS-CoV-2 (B.1); Severe acute respiratory syndrome coronavirus 2, Vero C1008, 10 μM, replicates, sheet Fig.S3): 93.2%
- inhibition at 0.01 µM (SARS-CoV-2 (B.1); Severe acute respiratory syndrome coronavirus 2, Vero C1008, B.1, 0.01 uM, Vero E6, replicates): 0%
- inhibition at 0.1 µM (SARS-CoV-2 (B.1); Severe acute respiratory syndrome coronavirus 2, Vero C1008, B.1, 0.1 uM, Vero E6, replicates): 0%
- inhibition at 0.25 µM (SARS-CoV-2 (B.1); Severe acute respiratory syndrome coronavirus 2, Vero C1008, B.1, 0.25 uM, Vero E6, replicates): 0%
- inhibition at 0.5 µM (SARS-CoV-2 (B.1); Severe acute respiratory syndrome coronavirus 2, Vero C1008, B.1, 0.5 uM, Vero E6, replicates): 0%
- inhibition at 1 µM (SARS-CoV-2 (B.1); Severe acute respiratory syndrome coronavirus 2, Vero C1008, B.1, 1 uM, Vero E6, replicates): 3.85%
- inhibition at 2 µM (SARS-CoV-2 (B.1); Severe acute respiratory syndrome coronavirus 2, Vero C1008, B.1, 2 uM, Vero E6, replicates): 97.4%
- inhibition at 5 µM (SARS-CoV-2 (B.1); Severe acute respiratory syndrome coronavirus 2, Vero C1008, B.1, 5 uM, Vero E6, replicates): 99.8%
- inhibition at 10 µM (SARS-CoV-2 (B.1); Severe acute respiratory syndrome coronavirus 2, Vero C1008, B.1, 10 uM, Vero E6, replicates): 99.9%
- inhibition at 50 µM (SARS-CoV-2 (B.1); Severe acute respiratory syndrome coronavirus 2, Vero C1008, B.1, 50 uM, Vero E6, replicates): 100%
- EC90 (SARS-CoV-2 (B.1); [9]): 2180 nM
- EC50 (SARS-CoV-2 (B.1); Severe acute respiratory syndrome coronavirus 2, Vero C1008, MOI 0.05, 48 h): 1360 nM
- efflux ratio [5]: 1.7
- Papp A→B ([5]; AB): 0.51 ×10⁻⁶ cm/s
- Papp B→A ([5]; BA): 0.87 ×10⁻⁶ cm/s
- EC50 ([6]; Severe acute respiratory syndrome coronavirus 2, Huh-7, read-out: EC50 (Confidence 95%) in Huh7 cells): 1630 nM
- EC90 ([6]; Severe acute respiratory syndrome coronavirus 2, Huh-7, read-out: EC90 (Confidence 95%) in Huh7 cells): 1960 nM
- % Inhibition ([7]; 0.069 uM): 43.9482% and 49.6397%
- % Inhibition ([7]; 0.208 uM): 71.5175% and 88.4612%
- % Inhibition ([7]; 0.625 uM): 99.4508% and 99.8921%
- % Inhibition ([7]; 2.5 uM): 99.9835% and 99.9391%
- % Inhibition ([7]; 5 uM): 99.9795% and 99.9931%
- % Inhibition ([7]; 10 uM): 99.9442%
- EC50 ([8]; Severe acute respiratory syndrome coronavirus 2, Vero C1008, 48 h, read-out: EC50 in Vero E6 cells, SARS-CoV-2 (Omicron, B.1.1.529)): 106 nM
- inhibition at 0.008 µM ([8]; Severe acute respiratory syndrome coronavirus 2, Vero C1008, Omicon, 0.008 uM, Vero E6, replicates): 0%
- inhibition at 0.208 µM ([8]; Severe acute respiratory syndrome coronavirus 2, Vero C1008, Omicon, 0.208 uM, Vero E6, replicates): 81.1%
- inhibition at 0.625 µM ([8]; Severe acute respiratory syndrome coronavirus 2, Vero C1008, Omicon, 0.625 uM, Vero E6, replicates): 99.7%
- inhibition at 2.5 µM ([8]; Severe acute respiratory syndrome coronavirus 2, Vero C1008, Omicon, 2.5 uM, Vero E6, replicates): 99.9%
- inhibition at 5 µM ([8]; Severe acute respiratory syndrome coronavirus 2, Vero C1008, Omicon, 5 uM, Vero E6, replicates): 100%
- inhibition at 10 µM ([8]; Severe acute respiratory syndrome coronavirus 2, Vero C1008, Omicon, 10 uM, Vero E6, replicates): 100%
- EC90 [8, 9]: 269 nM
